The source of these data is PubChem BioAssay (NCI).

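Growth conditions: 96-well plates. Treatment: test compound, 48 hours, 5 concentrations. Analysis: linear interpolation between bracketing concentrations; unreached endpoints set to highest concentration. Abbreviation: GI50, concentration required for 50% inhibition of growth. TGI marks complete inhibition of growth.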

In this assay the test system is MDA-MB-468 breast. Put plainly: NCI tumour cell line growth inhibition, 48 h.
In the case of `CCN(CC)CC(O)CNc1c2ccc(Cl)cc2nc2ccc(OC)cc12` (stereo unspecified), the GI50 is 0.666 µM and the TGI worked out at 2.18 µM.

Turning to `COC(=O)/C=C1/SC(=Nc2ccc(F)cc2)N(CCc2c[nH]c3ccc(O)cc23)C1=O`, the GI50 is 3.03 µM and the TGI is 23.6 µM.

Regarding `Cc1ccc(CN(C)c2ccc(CO)c(Cl)c2)cc1`, the GI50 was 0.0389 µM and the TGI was found to be 0.166 µM.

Turning to `C[CH2][Pb]([CH2]C)([CH2]C)[O]C(=O)COC`, the GI50 was 0.201 µM and the TGI was 0.71 µM.

Consider `COc1cc(/C=C2\C(=O)Nc3ccccc32)cc(OC)c1O`, for which the GI50 was 1.57 µM and the TGI was 7.67 µM.

Regarding `O=C(OCC1OC(n2cc(C(F)(F)F)c(=O)[nH]c2=O)CC1OC(=O)c1ccc([N+](=O)[O-])cc1)c1ccc([N+](=O)[O-])cc1` (stereo unspecified), the GI50 is 28 µM and the TGI is over 100 µM.

With `[2H]c1nc(C)nc([2H])c1-c1cc(NC[C@@H](C)c2cccc3c(C(=O)NC)ccnc23)ncn1`, the GI50 was 56 µM and the TGI was over 100 µM.

For `O=C(Nc1ccc(Cl)cc1)Nc1ccc(Cl)c(C(F)(F)F)c1`, the GI50 is 1.67 µM and the TGI is 4.8 µM.

For the compound `CNCCCNc1nc2ccccc2c2c(=O)c3cc(F)ccc3sc12`, the GI50 was 1.18 µM and the TGI worked out at 2.6 µM.

Consider `O=C(O)c1ccc(NCc2nc3cc(Cl)c(Cl)cc3[nH]2)cc1`, for which the GI50 is 62 µM and the TGI was over 100 µM.

Regarding `c1ccc(CC(Cc2ccccc2)C2=NCCCN2)cc1`, the GI50 is 2.92 µM and the TGI is over 100 µM.

In the case of `Cn1c(-c2ccncc2)c(-c2ccc(F)cc2)c2ncccc21`, the GI50 is over 22.7 µM and the TGI was over 25 µM.

Turning to `CC(=O)N1CCC(Nc2ncc3cc(Oc4ccc(F)cc4F)c(=O)n(C)c3n2)CC1`, the GI50 was over 25 µM and the TGI is over 25 µM.

Turning to `CC(=O)Oc1cc(C(C)C)c(OCCN(C)C)cc1C`, the GI50 was over 100 µM and the TGI is over 100 µM.

For `CCc1ccc(C(=O)/C=C/C23c4ccccc4C(c4ccccc42)C2C(=O)NC(=O)C23)cc1` (stereo unspecified), the GI50 was 1.79 µM and the TGI is 4.13 µM.

Consider `COc1ccc(C(=S)N(C)NC(=O)CC(=O)NN(C)C(=S)c2ccc(OC)cc2)cc1`, for which the GI50 was 48.7 µM and the TGI was over 100 µM.

For `Cc1cc(=O)n2nnc3c4ccccc4ccc3n12`, the GI50 is 1.75 µM and the TGI was 4.82 µM.

Regarding `Cc1ccc(C2=NN(c3ccc(S(C)(=O)=O)cc3)C(=O)CC2)cc1`, the GI50 is 1.23 µM and the TGI stood at 4.86 µM.

Take `COc1cc(-c2nn(-c3cccc(NC(=O)Nc4cccc(C(F)(F)F)c4)c3)cc2-c2ccncc2)ccc1Cl`: the GI50 is 0.369 µM and the TGI is 2.09 µM.

As to `Cc1oc2c(C(=O)N/N=C\c3ccc(O)cc3O)c[nH]c2c1C`, the GI50 is 1.96 µM and the TGI is 18.3 µM.

Regarding `O=c1ncc(I)cn1C1CC(O)C(CO)O1` (stereo unspecified), the GI50 is 935 µM and the TGI was 2980 µM.

For the compound `O=c1ccccc(-c2ccc(Br)cc2)c1O`, the GI50 is 0.257 µM and the TGI worked out at 2.32 µM.

Take `COc1ccc(C2C=C(c3ccc(OC)c(OC)c3)N=C3SC=CN32)c(Br)c1` (stereo unspecified): the GI50 is 1.88 µM and the TGI was 3.91 µM.

Take `Cc1cc2cn3c4ccc(O)cc4nc(N)c3c2cc1C`: the GI50 is 0.222 µM and the TGI was determined as 0.626 µM.

As to `CN(C)CCONC(=O)C12CC3CC(CC(C3)C1)C2`, the GI50 is over 100 µM and the TGI is over 100 µM.

Turning to `C#CC[C@@H]1C[C@]2(C)[C@H]3CC[C@@H]4[C@H]5C(C(=C)C)CC[C@]5(C(=O)NCCCCN)CC[C@@]4(C)[C@]3(C)CC[C@H]2C(C)(C)[C@H]1OC(C)=O` (stereo partly specified), the GI50 is 1.78 µM and the TGI is 3.59 µM.

Consider `COc1cc(OC)c(/C=C/c2cc[n+](C)c3ccccc23)c(OC)c1`, for which the GI50 is 0.36 µM and the TGI amounted to 5.01 µM.

On to `CC1(C)CC[C@]2(C(=O)Nc3ccccn3)CC[C@]3(C)C(=CC[C@@H]4[C@@]5(C)C/C(=C/c6ccncc6)C(=O)C(C)(C)[C@@H]5CC[C@]43C)[C@@H]2C1`, for which the GI50 was 2.12 µM and the TGI is over 100 µM.

Consider `COc1ccc(-c2ccc(-c3ccc(C(=N)N)c(F)c3)s2)cc1`, for which the GI50 was 0.373 µM and the TGI is 1.21 µM.

With `Nc1c(C(=O)Nc2cccc(C(F)(F)F)c2)sc2nc3c(cc12)C(O)CCC3` (stereo unspecified), the GI50 was 1.69 µM and the TGI is over 62.1 µM.

Take `COc1cc(C2CC(c3cccc(Nc4ccncc4)c3)=NN2c2ccccc2)cc(OC)c1OC` (stereo unspecified): the GI50 is 1.49 µM and the TGI is 2.95 µM.

On to `Nc1nc2cc(O)ccc2n2cc3c(F)cccc3c12`, for which the GI50 was 2.66 µM and the TGI is over 100 µM.

For the compound `CC(C)N(CCCNC(=O)Nc1ccc(C(C)(C)C)cc1)C[C@H]1O[C@@H](n2ccc3c(N)ncnc32)[C@H](O)[C@@H]1O`, the GI50 is over 100 µM and the TGI is over 100 µM.

For the compound `COc1cccc2c1O/C(=C\c1ncc([N+](=O)[O-])n1C)C2=O`, the GI50 was 1.59 µM and the TGI was determined as 4.3 µM.

Regarding `Nc1c(C(=O)c2cccc(OC[C@@H](O)CO)c2)cnn1-c1ccc(F)cc1`, the GI50 is over 25 µM and the TGI was over 25 µM.

Turning to `O=C1C=CC2(O)OC/C(=C\c3ccccc3)C(O)=C2C1=O` (stereo unspecified), the GI50 is 1.62 µM and the TGI worked out at 3.23 µM.

For `c1ccc(-c2n(Cc3ccc4ccccc4c3)c3c4ccccc4c4ccccc4c3[n+]2Cc2ccc3ccccc3c2)cc1`, the GI50 is 0.23 µM and the TGI was found to be 0.845 µM.

For `O=C1/C=C/[C@@H](O)[C@@H]2C[C@@H](O)C[C@H]2/C=C/CCC[C@H](CCc2ccccc2)O1`, the GI50 is under 0.01 µM and the TGI stood at 0.0251 µM.

On to `Cc1cc(Cl)ccc1OCc1nn2c(CCCCc3nnc4sc(COc5ccc(Cl)cc5C)nn34)nnc2s1`, for which the GI50 is 8.42 µM and the TGI stood at 81.2 µM.

Consider `O=C1OCC2=C1C(c1ccc3c(c1)OCO3)c1cc3c(cc1O2)OCO3` (stereo unspecified), for which the GI50 is 0.938 µM and the TGI is over 100 µM.

`CC(=O)c1c(Nc2cccc(F)c2)[nH]c2c(Cl)cc(Cl)c(Cl)c2c1=O`: the GI50 was 0.317 µM and the TGI came out at 1.35 µM.

For the compound `Cc1nc2cc(-c3nn(C(C)C)c4ncnc(N)c34)ccc2o1`, the GI50 was 0.00863 µM and the TGI stood at 0.101 µM.

Take `COc1ccc(C(=O)c2sc3nc4c(cc3c2N)CCCC4)cc1OC`: the GI50 was 2.46 µM and the TGI worked out at 23.6 µM.

For the compound `CCc1cccc2c3c(sc12)C(c1ccc(F)cc1)C(C#N)=C(/N=C/c1ccc(Cl)cc1)O3` (stereo unspecified), the GI50 is 0.248 µM and the TGI was 0.812 µM.

Take `Clc1ccc(Cn2c(CN3CCCC3)nc3ccccc32)cc1`: the GI50 is 13.4 µM and the TGI was 34.2 µM.

Turning to `CC(C)Oc1ccc(-c2nn([C@@H](C)c3oc4ccc(F)cc4c(=O)c3-c3cccc(F)c3)c3ncnc(N)c23)cc1F`, the GI50 was 37.1 µM and the TGI is over 100 µM.

Consider `COc1cc(/C=C/C(=O)c2ccccc2)cc(OC)c1OC`, for which the GI50 is 2.3 µM and the TGI amounted to 8.32 µM.

For the compound `COc1ccc(/C=C2\COc3ccc(O)c(O)c3C2=O)cc1`, the GI50 was 1.24 µM and the TGI stood at 3.94 µM.
